Measurements taken from patent publication US6479531B1, “Gastrin and cholecystokinin receptor ligands” (James Black Foundation Limited, priority 1998, dated 2002).
Structures can show the parent of a compound that is named as a salt.

Experiments:
CCKB receptor = molecular target: T1, CCKB receptor (Mus musculus, UniProt P56481); test: CCKB receptor radioligand binding assay in mouse cortical membranes; conditions: [125I]-CCK8(S) 200 pM, 150 min at 21±3°, read-out: CCKB pKi (converted)
T1 construct: The whole brains from male mice (CD1 22-25 g; Charles River) were removed; from tissue; host or cells: cerebral cortex membranes of male CD1 mice
T1 sequence (P56481 1-453): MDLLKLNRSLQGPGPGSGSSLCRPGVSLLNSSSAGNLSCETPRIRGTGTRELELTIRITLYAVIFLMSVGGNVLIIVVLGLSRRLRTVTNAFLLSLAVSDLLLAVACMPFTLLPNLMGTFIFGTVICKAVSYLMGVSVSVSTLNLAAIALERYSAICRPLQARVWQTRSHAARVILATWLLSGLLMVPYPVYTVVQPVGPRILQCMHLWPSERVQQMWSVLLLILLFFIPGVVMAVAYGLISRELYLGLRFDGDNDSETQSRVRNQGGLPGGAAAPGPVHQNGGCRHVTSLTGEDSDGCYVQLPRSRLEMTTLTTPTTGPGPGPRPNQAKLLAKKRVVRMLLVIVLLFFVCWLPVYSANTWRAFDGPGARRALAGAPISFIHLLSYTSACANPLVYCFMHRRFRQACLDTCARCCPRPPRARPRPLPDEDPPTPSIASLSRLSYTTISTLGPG
Procedure, shortened: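 Bound radioactivity was gamma-counted after rapid GF/B filtration and cold 50 mM Tris-HCl (pH 7.4) washes. The tissue was cerebral cortex from male CD1 mice, prepared as twice-centrifuged membranes in pH 7.2 HEPES/NaCl/KCl/MgCl2/EDTA buffer with bacitracin at 20 mg/ml original wet weight.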

gastrin receptor = molecular target: T2, gastrin receptor (Rattus norvegicus, UniProt P30553); test: gastrin antagonist activity in immature rat stomach assay (pentagastrin dose-response, acid secretion); conditions: isolated immature rat stomach, cumulative pentagastrin dose-response curves, read-out: Gastrin pKb (converted)
T2 construct: The stomach was excised and flushed with ca. 1 ml of unbuffered physiological saline solution; from tissue; host or cells: isolated whole stomach of immature rats (ca. 21 days old)
T2 sequence (P30553 1-452): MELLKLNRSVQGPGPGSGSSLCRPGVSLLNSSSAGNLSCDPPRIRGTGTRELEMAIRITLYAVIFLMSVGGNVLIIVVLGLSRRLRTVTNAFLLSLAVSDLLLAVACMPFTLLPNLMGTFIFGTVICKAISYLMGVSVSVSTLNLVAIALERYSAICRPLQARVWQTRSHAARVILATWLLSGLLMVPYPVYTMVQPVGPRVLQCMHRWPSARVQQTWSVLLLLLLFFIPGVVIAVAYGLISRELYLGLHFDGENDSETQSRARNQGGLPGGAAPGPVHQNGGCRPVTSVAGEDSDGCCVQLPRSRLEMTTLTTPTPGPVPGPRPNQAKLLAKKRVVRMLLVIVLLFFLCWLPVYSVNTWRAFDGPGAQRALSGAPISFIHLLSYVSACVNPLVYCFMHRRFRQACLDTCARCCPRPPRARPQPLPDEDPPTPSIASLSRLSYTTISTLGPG
Procedure, shortened: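 Gastrin antagonism was measured as the effect on cumulative pentagastrin dose-response curves of acid output, recorded by pH electrode in the perfusate of an excised immature rat stomach (ca. 21 days old). Test compound was placed in the serosal bath (37°, 3×10^−8 M 5-methylfurmethide) 60 min before pentagastrin.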

Row | Ki (CCKB receptor) | Kb (gastrin receptor) | Structure (SMILES)
1 | 457 nM | 155 nM | O=C(O)c1cccc(NC(=O)c2nc(-c3ccco3)[nH]c2CCC23CC4CC(CC(C4)C2)C3)c1 [Example 185, 3-{[5-(2-Adamantan-1-yl-ethyl)-2-furan-2-yl-1H-imidazole-4-carbonyl]-amino}benzoic Acid]
2 | 155 nM | 11 nM | O=C(O)c1cccc(NC(=O)c2nc(C3CCCO3)[nH]c2CCC23CC4CC(CC(C4)C2)C3)c1 (stereo not drawn) [Example 186, 3-{[5-(2-Adamantan-1-yl-ethyl)-2-(tetrahydro-furan-2-yl)-1H-imidazole-4-carbonyl]-amino}-benzoic Acid]
3 | 60.3 nM | 75.9 nM | Cc1ccc(NC(=O)c2nc(-c3ccco3)[nH]c2CCC23CC4CC(CC(C4)C2)C3)cc1C(=O)O [Example 187, 5-{[5-(2-Adamantan-1-yl-ethyl)-2-furan-2-yl-1H-imidazole-4-carbonyl]-amino}-2-methyl-benzoic Acid]
4 | 25.7 nM | 7.76 nM | Cc1ccc(NC(=O)c2nc(C3CCCO3)[nH]c2CCC23CC4CC(CC(C4)C2)C3)cc1C(=O)O (stereo not drawn) [Example 188, 5-{[5-(2-Adamantan-1-yl-ethyl)-2-(tetrahydro-furan-2-yl)-1H-imidazole-4-carbonyl]-amino}-2-methyl-benzoic Acid]
5 | 174 nM | 4.17 nM | CC1(C)C2CCC(c3nc(C(=O)Nc4cccc(C(=O)O)c4)c(CCC45CC6CC(CC(C6)C4)C5)[nH]3)C1C2 (stereo not drawn) [Example 190, 3-{[5-(2-Adamantan-1-yl-ethyl)-2-(6,6-dimethyl-bicyclo[3.1.1]hept-2-yl)-1H-imidazole-4-carbonyl]-amino}-benzoic Acid]
6 | 28.8 nM | 67.6 nM | Cc1ccc(NC(=O)c2nc(C3CCC4CC3C4(C)C)[nH]c2CCC23CC4CC(CC(C4)C2)C3)cc1C(=O)O (stereo not drawn) [Example 191, 5-{[5-(2-Adamantan-1-yl-ethyl)-2-(6,6-dimethyl-bicyclo[3.1.1]hept-2-yl)-1H-imidazole-4-carbonyl]-amino}-2-methyl-benzoic Acid]
7 | 66.1 nM | 141 nM | CC1(C)C2CC=C(c3nc(C(=O)Nc4cccc(C(=O)O)c4)c(CCC45CC6CC(CC(C6)C4)C5)[nH]3)C1C2 (stereo not drawn) [Example 192, 3-{[5-(2-Adamantan-1-yl-ethyl)-2-(6,6-dimethyl-bicyclo[3.1.1]hept-2-en-2-yl)-1H-imidazole-4-carbonyl]-amino}-benzoic Acid]
8 | 57.5 nM | 20.4 nM | O=C(O)c1cccc(NC(=O)c2nc(CC3CCCCC3)[nH]c2CCC23CC4CC(CC(C4)C2)C3)c1 [Example 193, 3-{[5-(2-Adamantan-1-yl-ethyl)-2-cyclohexylmethyl-1H-imidazole-4-carbonyl]-amino}-benzoic Acid]
9 | 158 nM | 525 nM | CC(C)C1CCC(c2nc(C(=O)Nc3cccc(C(=O)O)c3)c(CCC34CC5CC(CC(C5)C3)C4)[nH]2)CC1 (stereo not drawn) [Example 194, 3-{[5-(2-Adamantan-1-yl-ethyl)-2-(4-isopropyl-cyclohexyl)-1H-imidazole-4-carbonyl]-amino}-benzoic Acid]
10 | 42.7 nM | 6.61 nM | O=C(O)c1cccc(NC(=O)c2nc(C3CC=CCC3)[nH]c2CCC23CC4CC(CC(C4)C2)C3)c1 (stereo not drawn) [Example 195, 3-{[5-(2-Adamantan-1-yl-ethyl)-2-cyclohex-3-enyl-1H-imidazole-4-carbonyl]-amino}-benzoic Acid]
11 | 38 nM | 7.08 nM | O=C(O)c1cccc(NC(=O)c2[nH]c(C3CCCC3)nc2CCC23CC4CC(CC(C4)C2)C3)c1 [Example 196, 3-{[5-(2-Adamantan-1-ethyl)-2-cyclopentyl-1H-imidazole-4-carbonyl]-amino}-benzoic Acid]
12 | 776 nM | 70.8 nM | O=C(O)c1cccc(NC(=O)c2[nH]c(C3CC3)nc2CCC23CC4CC(CC(C4)C2)C3)c1 [Example 197, 3-{[5-(2-Adamantan-1-yl-ethyl)-2-cyclopropyl-1H-imidazole-4-carbonyl]-amino}-benzoic Acid]
13 | 8.71 nM | 8.13 nM | Cc1ccc(NC(=O)c2nc(C(C)(C)C)[nH]c2CCC23CC4CC(CC(C4)C2)C3)cc1C(=O)O [Example 198, 5-{[5-(2-Adamantan-1-yl-ethyl)-2-tert-butyl-1H-imidazole-4-carbonyl]-amino}-2-methyl-benzoic Acid]
14 | 17.8 nM | 1.62 nM | CC1(c2nc(C(=O)Nc3cccc(C(=O)O)c3)c(CCC34CC5CC(CC(C5)C3)C4)[nH]2)CCCCC1 [Example 199, 3-{[5-(2-Adamantan-1-yl-ethyl)-2-(1-methyl-cyclohexyl)-1H-imidazole-4-carbonyl]-amino}-benzoic Acid]
15 | 8.71 nM | 4.9 nM | CC1(c2nc(C(=O)Nc3ccc(F)c(C(=O)O)c3)c(CCC34CC5CC(CC(C5)C3)C4)[nH]2)CCCCC1 [Example 201, 5-{[5-(2-Adamantan-1-yl-ethyl)-2-(1-methyl-cyclohexyl)-1H-imidazole-4-carbonyl]-amino]-2-fluoro-benzoic Acid]
16 | 112 nM | 28.8 nM | CC1=C(Cc2nc(C(=O)Nc3cccc(C(=O)O)c3)c(CCC34CC5CC(CC(C5)C3)C4)[nH]2)C(C)(C)CCC1 [Example 202, 3-{[5-(2-Adamantan-1-yl-ethyl)-2-(2,6,6-trimethyl-cyclohex-1-enylmethyl)-1H-imidazole-4-carbonyl]-amino)-benzoic Acid]
17 | 3.98 nM | 3.98 nM | Cc1ccc(NC(=O)c2nc(C3CCCCC3)[nH]c2COC23CC4CC(CC(C4)C2)C3)cc1C(=O)O [Example 217, 5-{[5-(Adamantan-1-yloxymethyl)-2-cyclohexyl-1H-imidazole-4-carbonyl]-amino}-2-methyl-benzoic Acid]
18 | 2.95 nM | 0.468 nM | Cc1ccc(NC(=O)c2nc(C3(C)CCCCC3)[nH]c2COC23CC4CC(CC(C4)C2)C3)cc1C(=O)O [Example 220, 5-([5-(Adamantan-1-yloxymethyl)-2-(1-methyl-cyclohexyl)-1H-imidazole-4-carbonyl]-amino}-2-methyl-benzoic Acid]
19 | 60.3 nM | 4680 nM | Cc1ccccc1-c1nc(C(=O)Nc2ccc(N)c(C(=O)O)c2)c(CCC23CC4CC(CC(C4)C2)C3)[nH]1 [Example 241, 5-{[5-(2-Adamantan-1-yl-ethyl)-2-o-tolyl-1H-imidazole-4-carbonyl]-amino}-2-amino-benzoic Acid Dihydrochloride]
20 | 324 nM | 741 nM | Cc1ccccc1-c1nc(CCC23CC4CC(CC(C4)C2)C3)c(C(=O)Nc2ccc(N(C)C)c(C(=O)O)c2)[nH]1 [Example 242, 5-{[5-(2-Adamantan-1-yl-ethyl)-2-o-tolyl-1H-imidazole-4-carbonyl]-amino}-2-dimethylamino-benzoic Acid]
21 | 6.46 nM | 240 nM | Cc1ccccc1-c1nc(C(=O)Nc2ccc(Cl)c(C(=O)O)c2)c(CCC23CC4CC(CC(C4)C2)C3)[nH]1 [Example 245, 5-{[5-(2-Adamantan-1-yl-ethyl)-2-o-tolyl-1H-imidazole-4-carbonyl]-amino}-2-chloro-benzoic Acid]
22 | 3.63 nM | 832 nM | Cc1ccccc1-c1nc(C(=O)Nc2ccc(Br)c(C(=O)O)c2)c(CCC23CC4CC(CC(C4)C2)C3)[nH]1 [Example 246, 5-{[5-(2-Adamantan-1-yl-ethyl)-2-o-tolyl-1H-imidazole-4-carbonyl]-amino}-2-bromo-benzoic Acid]
23 | 170 nM | 263 nM | Cc1ccc(C(=O)O)cc1NC(=O)c1nc(C2CCCCC2)[nH]c1CCC12CC3CC(CC(C3)C1)C2 [Example 252, 3-{[5-(2-Adamantan-1-yl-ethyl)-2-cyclohexyl-1H-imidazole-4-carbonyl]-amino}-4-methylbenzoic Acid]
24 | 55 nM | 64.6 nM | Cc1c(NC(=O)c2nc(C3CCCCC3)[nH]c2CCC23CC4CC(CC(C4)C2)C3)cccc1C(=O)O [Example 253, 3-{[5-(2-Adamantan-1-yl-ethyl)-2-cyclohexyl-1H-imidazole-4-carbonyl]-amino}-2-methyl-benzoic Acid]
